According to publication PMC11487536 (ACS Pharmacology & Translational Science, 2024):
Values joined by “and” are separate entries in the source; they are usually repeats but may differ in a detail not shown here. Identical values can stand only once.

How the values were obtained:
[1] = biological target: T1, sensing domain of P. fluorescens CtaA (Pseudomonas fluorescens, UniProt Q3K7T6); assay: Thermal shift assay; format: binding; conditions: for Midpoint Transition Temperature in Presence of Ligand, Tm: 5 μM CtaA, ligand 20 μM, pH 5.5
T1 sequence (Q3K7T6 30-277): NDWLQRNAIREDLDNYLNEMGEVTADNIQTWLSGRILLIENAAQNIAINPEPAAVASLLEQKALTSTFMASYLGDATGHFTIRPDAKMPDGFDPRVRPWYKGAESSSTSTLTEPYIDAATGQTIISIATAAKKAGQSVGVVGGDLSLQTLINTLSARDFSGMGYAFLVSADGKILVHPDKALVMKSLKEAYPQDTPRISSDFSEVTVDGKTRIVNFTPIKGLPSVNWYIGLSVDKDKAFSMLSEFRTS

[2] = biological target: T2, sensing domain of C. jejuni Tlp3 (Campylobacter jejuni, UniProt Q0P864); assay: Thermal shift assay; format: binding; conditions: for Midpoint Transition Temperature in Presence of Ligand, Tm: 10 μM Tlp3, ligand 3 mM (L-valine 10 mM), pH 8.0
T2 sequence (Q0P864 41-290): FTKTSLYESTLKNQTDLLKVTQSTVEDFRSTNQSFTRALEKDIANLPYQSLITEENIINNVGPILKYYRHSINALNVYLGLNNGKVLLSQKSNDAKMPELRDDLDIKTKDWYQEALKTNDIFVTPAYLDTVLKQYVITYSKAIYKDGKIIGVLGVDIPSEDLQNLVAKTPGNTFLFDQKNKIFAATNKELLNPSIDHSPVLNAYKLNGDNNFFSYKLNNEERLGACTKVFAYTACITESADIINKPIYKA

TlpC = biological target: T3, TlpC (Helicobacter pylori, UniProt O24911); conditions: 25 °C; cited from earlier work
T3 sequence (O24911 32-299): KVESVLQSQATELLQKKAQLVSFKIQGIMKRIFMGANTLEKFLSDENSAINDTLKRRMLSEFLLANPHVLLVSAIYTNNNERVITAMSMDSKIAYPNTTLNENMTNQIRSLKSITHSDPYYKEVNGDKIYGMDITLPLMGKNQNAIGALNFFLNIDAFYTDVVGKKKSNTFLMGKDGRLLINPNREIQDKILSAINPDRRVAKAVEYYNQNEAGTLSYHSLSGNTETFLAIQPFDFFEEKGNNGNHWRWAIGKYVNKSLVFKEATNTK

| Compound | Kd [1] | Midpoint Transition Temperature in Presence of Ligand, Tm [1] | Midpoint Transition Temperature in Presence of Ligand, Tm [2] | Kd [2] | ΔHL(T) from ITC (enthalpy of ligand binding) (TlpC) |
| --- | --- | --- | --- | --- | --- |
| CC[C@H](C)[C@H](N)C(=O)O [L-Isoleucine, L-isoleucine] | – | – | 64.5 ± 0.3 °C | – | – |
| C[C@H](O)C(=O)O [L-Lactate, L-lactate] | – | – | – | – | –21.32 kcal mol^–1 |
| CC(C)[C@H](N)C(=O)O [L-Valine, L-valine] | 1.5 µM and 1.2 µM | 57.6 ± 0.2 °C | 64.6 ± 0.3 °C | 578 µM and 240 µM and 316 µM | – |

Now from value to molecule, other results behind:

| Kd [1] | Midpoint Transition Temperature in Presence of Ligand, Tm [1] | Midpoint Transition Temperature in Presence of Ligand, Tm [2] | Kd [2] | Compound | ΔHL(T) from ITC (enthalpy of ligand binding) (TlpC) |
| --- | --- | --- | --- | --- | --- |
| 4.6 µM and 3.2 µM | 56.1 ± 0.1 °C | – | – | C[C@H](N)C(=O)O [L-Alanine, L-alanine] | – |
| 5 ± 1 µM | 54.7 ± 0.3 °C | 64.2 ± 0.2 °C | 222 µM and 90 µM and 116 µM | CC(C)C[C@H](N)C(=O)O [L-Leucine, L-leucine] | – |
| – | – | 63.7 ± 0.3 °C | – | CCC[C@H](N)C(=O)O [L-Norvaline, L-norvaline] | – |
| 9 µM and 4 µM | 55.1 ± 0.3 °C | – | – | N[C@@H](CO)C(=O)O [L-Serine, L-serine] | – |
